Measured values: patent US20080176266A1, “Biomarkers Of Metabolic Responses To Hepatotoxicants And Carcinogens” (priority 2006, published 2008)
Marks after values point to notes of the source that are not given here.

Key:
Sprague Dawley rats [1] = assay: Liver enzymes ALT and AST in serum; format: in vivo; details: rat serum, 0, 50, 250 mg/kg, any groups
Experimental: (§1) In detail, a single dose of clofibrate or vehicle was administered by gavage (0, 50 and 250 mg/kg) to groups of 18 male Sprague Dawley rats at 11 wks age. Six rats per dose group were euthanized at 6 and 24 h post-dose. Serum (for metabolomics and alanine aminotransferase (ALT), and aspartate aminotransferase (AST)), liver lobes (for histology), and frozen liver and urine (for metabolomics) were collected. Six rats per dose group were placed in metabolism cages for urine collection at −24-0 h, 0-6 h, 6-24 h and 24-48 h. These rats were removed from metabolism cages at 48 h post-dose, for blood and liver collection. The detailed study design is set forth in Chart 1.

Sprague Dawley rats [2] = assay: Liver-to-body weight ratio (LBR), F-tests; format: in vivo, rat; details: Day 14 animals, with time and with dose, not the interaction of dose-time
Description: Liver hypertrophy is a well-known clinical end-point of chronic clofibrate exposure, however, the biomarkers of this pathology are unknown. Using the measurements of the liver weight and the body weight of the animals, we calculated the liver-to-body weight ratio (LBR). […] Second, we discovered the components that could classify the LBR in the liver and in the serum. This was accomplished out using a step wise regression method with the LBR as the response variable and all of the components as independent variables. After an iterative selection procedure, 29 of the best components from the serum and the liver were used to build the reduced model given below: […]

Sprague Dawley rats [3] = assay: Liver histology; format: in vivo; details: rat liver
Experimental: as §1, with “In detail, a single dose of clofibrate or vehicle was administered by gavage (0, 50 and 250 mg/kg) to groups of 18 male Sprague Dawley rats at 11 wks age.” left out

Sprague Dawley rats [4] = assay: GC-MS metabolomics of liver from rats exposed to clofibrate; format: in vivo; details: rat liver, 250 mg/kg/d
Experimental: In one embodiment, the hepatotoxicant is clofibrate. Clofibrate or vehicle is administered orally (0, 50, 250 mg/kg/d) to groups of 6 rats and serum and livers are collected 6 and 24 h after either a single or 14 daily doses. Global biochemical profiles are determined by LC-MS and GC-MS and components highly perturbed by clofibrate exposure are identified by the methods described above. […] Rats (6 per group) were dosed by gavage with vehicle, 50 or 250 mg/kg clofibrate per day for 1 (single dose) or 14 days (repeated dose). These groups are referred to as “day 1” and ‘day 14 (d 1 and d14).” Liver and serum were collected at 6 and 24 h post-dosing in the day 1 and day 14. In detail, a single dose of clofibrate or vehicle was administered by gavage (0, 50 and 250 mg/kg) to groups of 18 male Sprague Dawley rats at 11 wks age. Six rats per dose group were euthanized at 6 and 24 h post-dose. Serum (for metabolomics and alanine aminotransferase (ALT), and aspartate aminotransferase (AST)), liver lobes (for histology), and frozen liver and urine (for metabolomics) were collected. Six rats per dose group were placed in metabolism cages for urine collection at −24-0 h, 0-6 h, 6-24 h and 24-48 h. These rats were removed from metabolism cages at 48 h post-dose, for blood and liver collection. The detailed study design is set forth in Chart 1. For GC-MS, liver was extracted with CHCl3:MeOH mixtures. Organic residue was derivitized with BSTFA and dried aqueous residues were derivitized with methoxyamine HCl/BSTFA. Samples were injected with 10:1 split into an Agilent 6890 gas chromatograph. A Leco Pegasus III TOFMS was used. Ions were generated at 70 eV with 3.2 mA ionization current; 25 spectra/s were recorded for 60-800 m/z. Acceleration voltage activated after 180 s solvent delay. Detector voltage: 1750 V. Data were processed with Leco ChromaTOF software. Automatic peak detection and mass spectrum deconvolution were performed using 1.33 s peak width. Peaks with S/N less than 20 were rejected. Component identification was accomplished with the NIST 98' MS library and, in some cases, verified with standards. Components with similarity greater than 600 were used for analysis.

rats = details: cited from earlier work
DNA = details: short term treatment; Gonzalez et al. (1998); cited from earlier work

With `CCOC(=O)C(C)(C)Oc1ccc(Cl)cc1` [clofibrate, ethyl-p-chloro-phenoxyisobutyrate] the ALT (Sprague Dawley rats [1]) was “not elevated”, the AST (Sprague Dawley rats [1]) was “not elevated” and the “Liver-to-body weight ratio (LBR)” value (Sprague Dawley rats [2]) was “significantly increased”. The “Histology: hepatocellular cytologic alterations” value (Sprague Dawley rats [3]; after 14 doses at 250 mg/kg/day, all time points) was “hepatocellular cytologic alterations (indicating loss of glycogen and eosinophilic granular cytoplasm) were noted”, the “Histology: hepatocellular mitotic figures” value (Sprague Dawley rats [3]; after a single dose, 50 to 250 mg/kg) was “dose related increase and severity of hepatocellular mitotic figures” and the “Hepatic 1-Mono linoleoylglycerol (fold change)” value (Sprague Dawley rats [4]; Day 1, 6 H) was 1.11*** fold change. For the same compound, the “Hepatic 1-Mono oleoylglycerol (fold change)” value (Sprague Dawley rats [4]; Day 1, 6 H) was 0.98* fold change, the “Hepatic 1-Mono palmitoylglycerol (fold change)” value (Sprague Dawley rats [4]; Day 1, 6 H) was 0.91** fold change and the “Hepatic 2-Mono oleoylglycerol (fold change)” value (Sprague Dawley rats [4]; Day 1, 6 H) was 1.12*** fold change. The “Hepatic Cholesterol (fold change)” value (Sprague Dawley rats [4]; Day 1, 6 H) was 1.34*** fold change, the “Hepatic Glucose (aq) (fold change)” value (Sprague Dawley rats [4]; Day 1, 6 H) was 0.29* fold change and the “Hepatic Glycine (fold change)” value (Sprague Dawley rats [4]; Day 1, 6 H) was 2.69** fold change. The “Hepatic Lactic acid (fold change)” value (Sprague Dawley rats [4]; Day 1, 6 H) was 1.56** fold change, the “Hepatic Linoleic acid (fold change)” value (Sprague Dawley rats [4]; Day 1, 6 H) was 0.97* fold change and the “Hepatic Palmitate (fold change)” value (Sprague Dawley rats [4]; Day 1, 6 H) was 0.95*** fold change. The “Hepatic Stearate (fold change)” value (Sprague Dawley rats [4]; Day 1, 6 H) was 1.07* fold change, the “Hepatic 1-Mono stearoylglycerol (fold change)” value (Sprague Dawley rats [4]; Day 1, 24 H) was 17.14** fold change and the “Hepatic Glycerol 1(3)-phosphate (fold change)” value (Sprague Dawley rats [4]; Day 1, 24 H) was 2.56* fold change. For the same compound, the “Hepatic Glycine (fold change)” value (Sprague Dawley rats [4]; Day 1, 24 H) was 3.42* fold change, the “Hepatic L-Aspartic acid (fold change)” value (Sprague Dawley rats [4]; Day 1, 24 H) was 27.88*** fold change and the “Hepatic Lactic acid (fold change)” value (Sprague Dawley rats [4]; Day 1, 24 H) was 4.41* fold change. For the same compound, the “Hepatic Succinic acid (Butanedioic acid) (fold change)” value (Sprague Dawley rats [4]; Day 1, 24 H) was 17.05** fold change, the “Hepatic l-Alanine (fold change)” value (Sprague Dawley rats [4]; Day 1, 24 H) was 4.74* fold change and the “Hepatic 1-Mono palmitoylglycerol (fold change)” value (Sprague Dawley rats [4]; Day 14, 6 H) was 0.04** fold change. For the same compound, the “Hepatic 1-Mono stearoylglycerol (fold change)” value (Sprague Dawley rats [4]; Day 14, 6 H) was 0.22** fold change, the “Hepatic 2-Mono stearoylglycerol (fold change)” value (Sprague Dawley rats [4]; Day 14, 6 H) was 0.41* fold change and the “Hepatic Arachidonic acid (fold change)” value (Sprague Dawley rats [4]; Day 14, 6 H) was 0.22*** fold change. The “Hepatic Cholesterol (fold change)” value (Sprague Dawley rats [4]; Day 14, 6 H) was 1.87** fold change, the “Hepatic Malate (fold change)” value (Sprague Dawley rats [4]; Day 14, 6 H) was 0.1** fold change and the “Hepatic Palmitate (fold change)” value (Sprague Dawley rats [4]; Day 14, 6 H) was 0.72** fold change. The “Hepatic β-Sitosterol (fold change)” value (Sprague Dawley rats [4]; Day 14, 6 H) was 0.37** fold change, the “Hepatic Cholesterol (fold change)” value (Sprague Dawley rats [4]; Day 14, 24 H) was 0.69** fold change and the “Hepatic Docosahexaenoic acid (fold change)” value (Sprague Dawley rats [4]; Day 14, 24 H) was 0.58* fold change. The “Hepatic Glucose (aq) (fold change)” value (Sprague Dawley rats [4]; Day 14, 24 H) was 0.39** fold change, the “Hepatic Malate (fold change)” value (Sprague Dawley rats [4]; Day 14, 24 H) was 0.33** fold change and the “Hepatic β-Sitosterol (fold change)” value (Sprague Dawley rats [4]; Day 14, 24 H) was 0.46* fold change. For the same compound, the “Clofibrate metabolite Propanoic acid, 2-(4-chlorophenoxy)-2-methyl- detected in liver” value (Sprague Dawley rats [4]; GC-MS) was “(not present in control)”, the “Microscopic changes to liver” value (rats; 24 h after a single exposure) was “no microscopic changes” and the Liver histopathology (rats; after 2 weeks) was “induced hypertrophy”. The DNA adducts (DNA) was “no DNA adducts have been observed”.
